In publication PMC6440985, “Heterogeneous drug tissue binding in brain regions of rats, Alzheimer’s patients and controls: impact on translational drug development” (Scientific Reports, 2019):
Like-named read-outs stand apart in the source and are kept apart here.

Key:
[1] = on average; according to prior information; cited from earlier work
[2] = rat, brain homogenate
[3] = Regional brain tissue binding by equilibrium dialysis, human post-mortem brain homogenate (control and AD donors); format: in vitro ADME; details: for fu,brain,ROI in CRB of AD patients compared to rat CRB: AD patients versus healthy Sprague-Dawley rats; for fraction unbound at 6 h, 1 µM: human, post-mortem brain tissue homogenate
in vitro = details: Sprague-Dawley, rat, brain homogenate
[4] = set-up: method as in Loryan et al.[23]; details: Rat, ref Loryan et al.[23], cited from earlier work; for fu,brain,ROI Mean: biological replicates; for fu,brain,ROI Median: technical replicates
[5] = AD donors, BG, pH 7.4, AD donors, BG, biological replicates, 1 µM, 6 h, 37 °C, read-out: fu,brain,ROI Mean
[6] = AD donors, BG, pH 7.4, AD donors, BG, technical replicates, 1 µM, 6 h, 37 °C, read-out: fu,brain,ROI Median
[7] = AD donors, CRB, pH 7.4, AD donors, CRB, biological replicates, 1 µM, 6 h, 37 °C, read-out: fu,brain,ROI Mean
[8] = AD donors, CRB, pH 7.4, AD donors, CRB, technical replicates, 1 µM, 6 h, 37 °C, read-out: fu,brain,ROI Median
[9] = AD donors, FrCx, pH 7.4, AD donors, FrCx, biological replicates, 1 µM, 6 h, 37 °C, read-out: fu,brain,ROI Mean
[10] = AD donors, FrCx, pH 7.4, AD donors, FrCx, technical replicates, 1 µM, 6 h, 37 °C, read-out: fu,brain,ROI Median
[11] = AD donors, PrCx, pH 7.4, AD donors, PrCx, technical replicates, 1 µM, 6 h, 37 °C, read-out: fu,brain,ROI Median
[12] = control donors, BG, pH 7.4, Control donors, BG, biological replicates, 1 µM, 6 h, 37 °C, read-out: fu,brain,ROI Mean
[13] = control donors, BG, pH 7.4, Control donors, BG, technical replicates, 1 µM, 6 h, 37 °C, read-out: fu,brain,ROI Median
[14] = control donors, CRB, pH 7.4, Control donors, CRB, biological replicates, 1 µM, 6 h, 37 °C, read-out: fu,brain,ROI Mean
[15] = control donors, CRB, pH 7.4, Control donors, CRB, technical replicates, 1 µM, 6 h, 37 °C, read-out: fu,brain,ROI Median
[16] = control donors, FrCx, pH 7.4, Control donors, FrCx, biological replicates, 1 µM, 6 h, 37 °C, read-out: fu,brain,ROI Mean
[17] = control donors, FrCx, pH 7.4, Control donors, FrCx, technical replicates, 1 µM, 6 h, 37 °C, read-out: fu,brain,ROI Median
[18] = control donors, PrCx, pH 7.4, Control donors, PrCx, biological replicates, 1 µM, 6 h, 37 °C, read-out: fu,brain,ROI Mean
[19] = control donors, PrCx, pH 7.4, Control donors, PrCx, technical replicates, 1 µM, 6 h, 37 °C, read-out: fu,brain,ROI Median
[20] = AD group, within-group comparison
[21] = AD donors, PrCx, pH 7.4, AD donors, PrCx, biological replicates, 1 µM, 6 h, 37 °C, read-out: fu,brain,ROI Mean

| SMILES | between region comparison of fu,brain,ROI [2] | fu,brain,ROI in CRB of AD patients compared to rat CRB [3] | fraction unbound at 6 h, 1 µM [3, 5] | fraction unbound at 6 h, 1 µM [3, 6] | fraction unbound at 6 h, 1 µM [3, 7] | fraction unbound at 6 h, 1 µM [3, 8] | fraction unbound at 6 h, 1 µM [3, 9] | fraction unbound at 6 h, 1 µM [3, 10] | fraction unbound at 6 h, 1 µM [3, 11] | fraction unbound at 6 h, 1 µM [3, 12] | fraction unbound at 6 h, 1 µM [3, 13] | fraction unbound at 6 h, 1 µM [3, 14] | fraction unbound at 6 h, 1 µM [3, 15] | fraction unbound at 6 h, 1 µM [3, 16] | fraction unbound at 6 h, 1 µM [3, 17] | fraction unbound at 6 h, 1 µM [3, 18] | fraction unbound at 6 h, 1 µM [3, 19] | fraction unbound at 6 h, 1 µM (in vitro; pH 7.4, fu,brain,ROI Mean) | fraction unbound at 6 h, 1 µM (in vitro; pH 7.4, fu,brain,ROI Median) | ratio of fu,brain,ROI in CRB compared to PrCx [3, 20] | other results |
| --- | --- | --- | --- | --- | --- | --- | --- | --- | --- | --- | --- | --- | --- | --- | --- | --- | --- | --- | --- | --- | --- |
| COc1ccc2c(c1)c(CC(=O)O)c(C)n2C(=O)c1ccc(Cl)cc1 [Indomethacin, indomethacin] | no differences in binding | twice as high | 0.089 | 0.089 | 0.149 | 0.116 | 0.103 | 0.095 | 0.08 | 0.073 | 0.071 | 0.113 | 0.109 | 0.088 | 0.088 | 0.079 | 0.083 | 0.068 | 0.065 | – | plasma protein binding exceeding brain tissue binding [1]: 5 fold |
| CC12CC3CC(C)(C1)CC(N)(C3)C2 [Memantine, memantine] | no differences in binding | twice as high | 0.114 | 0.111 | 0.152 | 0.142 | 0.114 | 0.117 | 0.103 | 0.092 | 0.093 | 0.113 | 0.116 | 0.094 | 0.092 | 0.088 | 0.086 | 0.076 | 0.073 | ≥ 1.5 | fold higher fu,brain,ROI in CRB compared to PrCx ([3]; control group, within-group comparison): ≥ 1.3 fold; fraction unbound at 6 h, 1 µM [3, 21]: 0.099 |
| Cc1nc2n(c(=O)c1CCN1CCC(c3noc4cc(F)ccc34)CC1)CCCC2O (stereo not drawn) [Paliperidone, paliperidone] | no differences in binding | twice as high | 0.249 | 0.249 | 0.374 | – | 0.237 | 0.216 | 0.224 | 0.186 | 0.192 | 0.217 | 0.207 | 0.197 | 0.198 | 0.189 | 0.183 | – | – | ≥ 1.5 | fu,brain,ROI Median ([3]; AD donors, CRB, technical replicates, 1 µM, 6 h, 37 °C): 0.350; ratio of fu,brain,ROI in CRB compared to BG [3, 20]: 1.4; fold lower BTB in CRB compared to frontal and parietal cortices ([3]; AD patients, average): 1.5 fold; ratio of fu,brain,ROI AD versus control ([3]; CRB, between group comparison): 1.6; regional within-group comparison of fu,brain,ROI ([3]; control group, FrCx, PrCx, BG, CRB): uniform binding; fraction unbound at 6 h, 1 µM [3, 21]: 0.232; fu,brain,ROI Mean ([4]; BG): 0.128; fu,brain,ROI Median ([4]; BG): 0.128; fu,brain,ROI Mean ([4]; CRB): 0.145; fu,brain,ROI Median ([4]; CRB): 0.143; fu,brain,ROI Mean ([4]; FrCx): 0.144; fu,brain,ROI Median ([4]; FrCx): 0.138; fu,brain,ROI Mean ([4]; HIP): 0.157; fu,brain,ROI Median ([4]; HIP): 0.150; fu,brain,ROI Mean ([4]; WB): 0.141; fu,brain,ROI Median ([4]; WB): 0.151 |
